The source of these data is US8193170B2, “2-methylene-19,26-dinor-(20R,22E,25R)-vitamin D analogs” (Wisconsin Alumni Research Foundation, priority 2008, dated 2012).

What is called EC50 is the midpoint of the concentration-response curve. One may read the Ki as a dissociation constant, usually derived from enzyme kinetics or from competition with a known ligand.

One experiment deals with HL-60 cells. Kind of experiment: HL-60 cell differentiation (nitro blue tetrazolium reduction). The experiment is classed as cell-based, human. The following applies: for EC50: differentiation of HL-60 cells into monocytes, FIG. 2. The method, then: The study drugs were dissolved in ethanol and the concentrations determined using UV spectrophotometry. Serial dilutions were prepared so that a range of drug concentrations could be tested without changing the final concentration of ethanol (≦0.2%) present in the cell cultures.
Human promyelocytic leukemia (HL60) cells were grown in RPMI-1640 medium containing 10% fetal bovine serum. The cells were incubated at 37° C. in the presence of 5% CO2.
HL60 cells were plated at 1.2×10^5 cells/ml. Eighteen hours after plating, cells in duplicate were treated with drug. Four days later, the cells were harvested and a nitro blue tetrazolium reduction assay was performed (Collins et al., 1979; J. Exp. Med. 149:969-974). The percentage of differentiated cells was determined by counting a total of 200 cells and recording the number that contained intracellular black-blue formazan deposits. Verification of differentiation to monocytic cells was determined by measuring phagocytic activity (data not shown).

The subject of experiment [1] is 24-hydroxylase (24Ohase) gene promoter in ROS 17/2.8 (bone) cells. The experiment in a line: In vitro transcription assay (24-hydroxylase gene promoter luciferase reporter). The experiment is classed as cell-based. The note with it: for EC50: ROS 17/2.8 cells, 24-hydroxylase promoter-luciferase, FIG. 3, read-out: EC50, transcriptional activity in bone cells. On the procedure: Transcription activity was measured in ROS 17/2.8 (bone) cells that were stably transfected with a 24-hydroxylase (24Ohase) gene promoter upstream of a luciferase reporter gene (Arbour et al., 1998). Cells were given a range of doses. Sixteen hours after dosing the cells were harvested and luciferase activities were measured using a luminometer.
RLU=relative luciferase units.
(In general: A reporter such as luciferase makes a cellular process visible.)

Experiment [2] is described as follows: Bone calcium mobilization (serum calcium) in vitamin D-deficient rats. The experiment is classed as in vivo, rat. The note with it: rats on 0.02% Ca diet, FIG. 4. The method, then: (§1) Male, weanling Sprague-Dawley rats were placed on Diet 11 (0.47% Ca) diet+AEK oil for one week followed by Diet 11 (0.02% Ca)+AEK oil for 3 weeks. The rats were then switched to a diet containing 0.47% Ca for one week followed by two weeks on a diet containing 0.02% Ca. Dose administration began during the last week on 0.02% calcium diet. Four consecutive ip doses were given approximately 24 hours apart. Twenty-four hours after the last dose, blood was collected from the severed neck and the concentration of serum calcium determined as a measure of bone calcium mobilization. The first 10 cm of the intestine was also collected for intestinal calcium transport analysis using the everted gut sac method.

Experiment [3] addresses T1, full-length recombinant rat vitamin D receptor (Rattus norvegicus, UniProt P13053).
T1 construct: Full-length recombinant rat receptor was expressed in E. coli; histidine tag (C); made in house; host or cells: E. coli BL21 (DE3) Codon Plus RIL
T1 sequence (P13053 1-423): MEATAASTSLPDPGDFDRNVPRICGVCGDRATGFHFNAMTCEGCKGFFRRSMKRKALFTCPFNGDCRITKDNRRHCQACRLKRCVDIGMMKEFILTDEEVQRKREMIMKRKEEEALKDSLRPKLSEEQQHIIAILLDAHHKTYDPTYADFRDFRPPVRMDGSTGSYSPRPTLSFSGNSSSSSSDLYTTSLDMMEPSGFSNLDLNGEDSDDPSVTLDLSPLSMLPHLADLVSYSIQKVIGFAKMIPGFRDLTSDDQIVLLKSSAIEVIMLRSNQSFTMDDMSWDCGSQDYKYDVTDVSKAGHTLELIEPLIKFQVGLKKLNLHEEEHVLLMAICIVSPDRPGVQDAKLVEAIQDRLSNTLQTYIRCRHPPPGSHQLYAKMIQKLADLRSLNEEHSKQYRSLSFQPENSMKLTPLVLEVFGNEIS
Kind of experiment: Vitamin D receptor competitive binding with [3H]-1,25(OH)2D3. The method, then: Full-length recombinant rat receptor was expressed in E. coli BL21 (DE3) Codon Plus RIL cells and purified to homogeneity using two different column chromatography systems. The first system was a nickel affinity resin that utilizes the C-terminal histidine tag on this protein. The protein that was eluted from this resin was further purified using ion exchange chromatography (S-Sepharose Fast Flow). Aliquots of the purified protein were quick frozen in liquid nitrogen and stored at −80° C. until use. For use in binding assays, the protein was diluted in TEDK50 (50 mM Tris, 1.5 mM EDTA, pH7.4, 5 mM DTT, 150 mM KCl) with 0.1% Chaps detergent. The receptor protein and ligand concentration were optimized such that no more than 20% of the added radiolabeled ligand was bound to the receptor.
Radiolabeled and unlabeled ligands were added to 100 mcl of the diluted protein at a final ethanol concentration of ≦10%, mixed and incubated overnight on ice to reach binding equilibrium. The following day, 100 mcl of hydroxylapatite slurry (50%) was added to each tube and mixed at 10-minute intervals for 30 minutes. The hydroxylapaptite was collected by centrifugation and then washed three times with Tris-EDTA buffer (50 mM Tris, 1.5 mM EDTA, pH 7.4) containing 0.5% Titron X-100. […] Total binding was determined from the tubes containing only radiolabeled ligand.

A short description of experiment [4]: Intestinal calcium transport, everted gut sac method, in vitamin D-deficient rats. The following applies: FIG. 5. The experiment is classed as in vivo, rat. On the procedure: as §1
[5] abbreviates: 780 pmol/day ip for 4 consecutive days.

Entries after “also recorded” stand apart in the source; their conditions may differ.

Take `C=C1/C(=C\C=C2/CCC[C@]3(C)[C@@H]([C@H](C)CCCC(C)(C)O)CC[C@@H]23)C[C@@H](O)C[C@@H]1O` [1,25(OH)2D3, 1α,25-dihydroxyvitamin D3, reference compound]: the EC50 was 2000 pM with HL-60 cells and 200 pM in experiment [1]. In experiment [2] (setting [5]), the “Bone calcium mobilization (serum calcium)” value is “significant activity”. In addition, in experiment [2] (all dosages tested), the Serum calcium levels result was “increased serum calcium levels at all dosages”.
Consider `C=C1[C@H](O)CC(=C/C=C2\CCC[C@]3(C)[C@@H]([C@H](C)/C=C/C[C@@H](C)O)CC[C@@H]23)C[C@H]1O` [RR-22, 2-methylene-19,26-dinor-(20R,22E,25R)-1α,25-dihydroxyvitamin D3], for which the Ki in experiment [3] (full-length recombinant rat VDR, FIG. 1, read-out: Ki, competition with [3H]-1,25(OH)2D3 for binding to the vitamin D receptor) came to 100 pM. Moreover, in experiment [3] (less potent than 1,25(OH)2D3), the “VDR binding potency relative to 1,25(OH)2D3 (times less potent)” value is on record as “about 10 times”. Moreover, the EC50 with HL-60 cells (Homo sapiens) turned out to be 200 pM; in experiment [1], 20 pM. Besides, the “HL-60 cell differentiation activity relative to 1,25(OH)2D3 (times more)” value in the experiment with HL-60 cells (more active than 1,25(OH)2D3) is on record as “about 10 times”. Besides, the “Intestinal calcium transport activity” value in experiment [4] (setting [5]) is reported as “almost the same activity as 1,25(OH)2D3”. Moreover, the “Intestinal calcium transport, dose dependence” value in experiment [4] (range of doses) is “promotes intestinal calcium transport in a dose dependent manner”. Also, in experiment [1] (more potent than 1,25(OH)2D3, bone cells), the “Transcription activity of the 24-hydroxylase gene relative to 1,25(OH)2D3 (times more)” value is given as “about 10 times”. In experiment [2] (2,340 pmol/day ip for 4 consecutive days), the “Bone calcium mobilization (serum calcium)” value is given as “did not result in any mobilization of bone calcium; also recorded: no bone calcium mobilization activity”.
